pIC50: −log10 of the molar value. Where two headings read alike, the source gives them in different places.
Key:
5-HT1A receptor = biological target: T1, 5-HT1A receptor (Rattus norvegicus, UniProt P19327); assay: Procedure (A): displacement of [^3 H]-8-OH-DPAT from the 5-HT1A receptor in rat hippocampal membranes; format: binding; conditions: [^3 H]-8-OH-DPAT displacement, read-out: IC50 value according to procedure (A)
T1 construct: 5-HT1A receptor in rat hippocampal membranes; from tissue; host or cells: rat hippocampal membranes
T1 sequence (P19327 1-422): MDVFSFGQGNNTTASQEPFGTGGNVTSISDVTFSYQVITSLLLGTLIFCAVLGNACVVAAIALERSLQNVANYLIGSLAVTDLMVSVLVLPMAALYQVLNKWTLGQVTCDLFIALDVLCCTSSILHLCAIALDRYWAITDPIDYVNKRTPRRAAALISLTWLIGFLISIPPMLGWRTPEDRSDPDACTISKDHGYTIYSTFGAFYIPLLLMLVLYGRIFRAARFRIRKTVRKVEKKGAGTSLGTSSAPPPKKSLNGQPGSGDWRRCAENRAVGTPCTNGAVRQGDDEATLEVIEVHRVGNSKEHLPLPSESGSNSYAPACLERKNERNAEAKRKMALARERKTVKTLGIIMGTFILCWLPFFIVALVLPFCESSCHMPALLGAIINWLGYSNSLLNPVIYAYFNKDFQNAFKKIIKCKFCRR

5-HT2A = biological target: T2, 5-HT2A (Rattus norvegicus, UniProt P14842); assay: Procedure (B): affinity for 5-HT2A sites; format: binding; conditions: for inhibition at 1 µM: 10^-6 M, read-out: % inhibition of binding at 5-HT2A
T2 construct: from tissue
T2 sequence (P14842 whole entry): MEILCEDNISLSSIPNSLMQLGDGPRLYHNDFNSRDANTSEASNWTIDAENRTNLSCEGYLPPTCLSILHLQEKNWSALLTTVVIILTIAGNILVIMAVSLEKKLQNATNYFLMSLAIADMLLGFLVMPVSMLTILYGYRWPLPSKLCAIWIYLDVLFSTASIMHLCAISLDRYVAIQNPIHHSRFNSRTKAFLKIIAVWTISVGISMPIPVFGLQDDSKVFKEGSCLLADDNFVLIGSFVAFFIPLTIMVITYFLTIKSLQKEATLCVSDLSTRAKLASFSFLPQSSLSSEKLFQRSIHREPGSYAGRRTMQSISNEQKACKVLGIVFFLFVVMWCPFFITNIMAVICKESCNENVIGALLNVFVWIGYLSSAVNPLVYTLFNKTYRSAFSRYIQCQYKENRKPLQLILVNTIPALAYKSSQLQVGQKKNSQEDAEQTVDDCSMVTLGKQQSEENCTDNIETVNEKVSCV
Method: The affinity of the compound for 5-HT2A sites is determined by the procedure of R. A. Lyon et al. Mol. Pharmacol., 1987, 31, 194-199. (The 5-HT2A site was previously known as the 5-HT2 site).
(§1) Preferably the compound should be 50 fold selective.

D1 = biological target: T3, D1 (Rattus norvegicus, UniProt P18901); assay: Procedure (B): affinity for D1 sites; conditions: 10^-6 M; read-out: % inhibition of binding at D1
T3 construct: from tissue
T3 sequence (P18901 whole entry): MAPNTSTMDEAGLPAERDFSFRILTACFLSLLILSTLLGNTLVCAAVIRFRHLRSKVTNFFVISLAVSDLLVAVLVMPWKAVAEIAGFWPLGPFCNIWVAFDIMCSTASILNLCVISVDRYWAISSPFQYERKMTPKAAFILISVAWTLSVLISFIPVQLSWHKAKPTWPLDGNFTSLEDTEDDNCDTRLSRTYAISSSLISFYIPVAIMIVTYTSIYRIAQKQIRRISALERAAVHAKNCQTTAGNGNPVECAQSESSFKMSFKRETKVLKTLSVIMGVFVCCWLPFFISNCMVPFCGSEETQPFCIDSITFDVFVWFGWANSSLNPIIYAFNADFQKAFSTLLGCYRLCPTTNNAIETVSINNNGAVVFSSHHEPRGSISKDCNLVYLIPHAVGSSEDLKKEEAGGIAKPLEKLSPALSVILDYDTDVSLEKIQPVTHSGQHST
Method: The affinity for these sites is determined by the following procedures. D1 : V Billard et al. Life Sciences. 1984, 35, 1885-1893.

α2 = biological target: T4, α2 (Rattus norvegicus, UniProt P22909); assay: Procedure (B): affinity for α2 sites; conditions: 10^-6 M; read-out: % inhibition of binding at α2
T4 construct: from tissue
T4 sequence (P22909 1-465): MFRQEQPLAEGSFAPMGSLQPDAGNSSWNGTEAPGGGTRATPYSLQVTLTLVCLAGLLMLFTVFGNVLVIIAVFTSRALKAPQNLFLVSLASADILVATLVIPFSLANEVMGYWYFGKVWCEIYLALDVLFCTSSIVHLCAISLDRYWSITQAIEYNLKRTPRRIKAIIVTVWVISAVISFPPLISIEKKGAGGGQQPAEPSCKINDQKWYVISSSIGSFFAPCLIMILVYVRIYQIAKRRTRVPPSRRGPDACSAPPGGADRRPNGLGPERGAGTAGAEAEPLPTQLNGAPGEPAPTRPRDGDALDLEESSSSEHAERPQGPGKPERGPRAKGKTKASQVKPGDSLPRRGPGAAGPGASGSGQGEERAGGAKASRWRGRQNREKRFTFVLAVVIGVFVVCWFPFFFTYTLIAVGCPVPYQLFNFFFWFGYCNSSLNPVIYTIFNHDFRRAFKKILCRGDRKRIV
Method: The affinity for these sites is determined by the following procedures. α2 : D. J. Loftus et al. Life Sciences, 1984, 34, 61-69.

D2 = D2 (Homo sapiens, UniProt P14416); assay: Procedure (B): affinity for D2 receptor sites; format: binding; conditions: for inhibition at 1 µM: 10^-6 M, read-out: % inhibition of binding at D2
D2, sequence (P14416 whole entry): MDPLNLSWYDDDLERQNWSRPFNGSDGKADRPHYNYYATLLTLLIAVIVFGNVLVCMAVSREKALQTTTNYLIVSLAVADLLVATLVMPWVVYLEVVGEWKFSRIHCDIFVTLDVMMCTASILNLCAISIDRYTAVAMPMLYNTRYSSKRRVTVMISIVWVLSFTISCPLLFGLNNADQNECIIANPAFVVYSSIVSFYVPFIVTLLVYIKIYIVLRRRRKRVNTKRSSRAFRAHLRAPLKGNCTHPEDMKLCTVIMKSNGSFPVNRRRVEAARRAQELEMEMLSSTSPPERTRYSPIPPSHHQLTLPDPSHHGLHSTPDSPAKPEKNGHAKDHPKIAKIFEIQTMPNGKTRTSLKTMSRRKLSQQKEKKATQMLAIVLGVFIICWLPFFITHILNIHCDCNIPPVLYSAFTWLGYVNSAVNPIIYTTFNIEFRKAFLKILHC
Method: The affinity of the compounds for D2 receptor sites is determined by the procedure of P. Seeman et al. J. Neurochem. 1984, 43, 221-235.

5-HT1B = biological target: T5, 5-HT1B (Rattus norvegicus, UniProt P28564); assay: Procedure (B): affinity for 5-HT1B sites; conditions: 10^-6 M; read-out: % inhibition of binding at 5-HT1B
T5 construct: from tissue
T5 sequence (P28564 whole entry): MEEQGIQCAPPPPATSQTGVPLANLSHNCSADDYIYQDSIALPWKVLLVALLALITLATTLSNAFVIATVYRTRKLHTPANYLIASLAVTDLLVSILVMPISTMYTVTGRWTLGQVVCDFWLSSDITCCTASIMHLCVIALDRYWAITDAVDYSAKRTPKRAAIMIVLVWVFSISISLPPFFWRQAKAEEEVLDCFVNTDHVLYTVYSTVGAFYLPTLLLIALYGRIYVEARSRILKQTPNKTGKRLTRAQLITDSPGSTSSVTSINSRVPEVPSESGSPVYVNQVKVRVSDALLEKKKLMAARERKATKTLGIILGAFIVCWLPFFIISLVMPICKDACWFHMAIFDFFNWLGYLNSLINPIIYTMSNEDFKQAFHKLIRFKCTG
Method: (§2) In addition to showing selectivity over the D2, α1 and 5-HT2A sites it is also preferable that the compound is 25 fold selective (preferably 50 fold selective) over one or more of the 5-HT1B, 5-HT2C, 5-HT1D, 5-HT3, α2, β and D1 sites. The affinity for these sites is determined by the following procedures.
5-HT1B : B. J. Alexander et al., Br. J. Pharmac., 1986, 87, P 22.

5-HT1A binding site [1] = biological target: T6, 5-HT1A binding site (Rattus norvegicus, UniProt P19327)
T6 sequence (P19327 1-422): T1 sequence (P19327 1-422)

[2] = biological target: T7, presynaptic 5-HT1A receptors (Rattus norvegicus, UniProt P19327); assay: Procedure (C)(a): electrophysiological monitoring of firing rate of serotonin neurones; format: in vivo; conditions: iv, read-out: ID50 (neuronal firing rate)
T7 construct: 5-HT release in the hippocampus using in vivo microdialysis; from tissue; host or cells: brain of the living animal
T7 sequence (P19327 1-422): T1 sequence (P19327 1-422)
Method: (§3) The activation of presynaptic 5-HT1A receptors results in the inhibition of serotonin neurones which can be quantified in two ways:
(a) Electrophysiologically monitoring the activity of the neurones to measure their firing rate by the method of H. J. Haigler and G. K. Aghajanian, J. Pharmacol. Exp. Therap., 1974, 188, 688. An intravenous ID50 dose is determined. The agonist.

[3] = biological target: T7, presynaptic 5-HT1A receptors; assay: Procedure (C)(b): 5-HT release in the hippocampus using in vivo microdialysis; conditions: 1 mg/kg s.c.
Description: as §3
Routledge, J. Gurling, I. K. Wright and C.

α1 = assay: Procedure (B): affinity for α1 sites; format: binding
Method: The affinity of the compound for al sites is determined by the procedure of A. L. Morrow, et al. Mol. Pharmacol. 1986, 29, 321.
as §1

5-HT1D = assay: Procedure (B): affinity for 5-HT1D sites; format: binding
Method: The affinity for these sites is determined by the following procedures. […] C. Waeber et al., Naunyn-Schmniedebergs Arch. Pharmacol. 1988, 337, 595-601.

5-HT2C = assay: Procedure (B): affinity for 5-HT2C (previously 5-HT1C) sites; format: binding; conditions: 10^-6 M
Method: as §2
5-HT2C : B. J. Alexander et al., Br. J. Pharmac., 1986, 87, P 22. (The 5-HT2C site was previously known as the 5-HT1C site).

β = assay: Procedure (B): affinity for β sites; format: binding; conditions: 10^-6 M
Method: The affinity for these sites is determined by the following procedures. β: L. T. Williams and R. J. Lefkowitz (1987) Receptor binding studies in adrenergic pharmacology, Raven Press, New York.

5-HT1A binding site [4] = biological target: T6, 5-HT1A binding site; assay: biochemical
[5] = concentration not clearly stated ("as were")
[6] = concentration of 10 MM (so in the source)

Compound: COc1ccccc1N1CCN(CC(C(=O)NC(C)(C)C)c2ccccc2)CC1 (single isomer, unassigned; (+)) [(+)-enantiomer, N-tert-butyl-3-[4-(2-methoxyphenyl)piperazinyl]-2-phenylpropanamide]
- pIC50 (5-HT1A receptor): 7.81
- inhibition at 1 µM (5-HT2A): 61%
- inhibition at 1 µM (D1): 22%
- inhibition at 1 µM (α2): 11%
- inhibition at 1 µM (D2): 20%
- inhibition at 1 µM (5-HT1B): 22%

Compound: O=C1CN=C(c2ccccc2Cl)c2cc([N+](=O)[O-])ccc2N1 [clonazepam]
- displacement of hippocampal [^3 H]WAY-100635 binding (5-HT1A binding site [1]; [5]): ineffective

Compound: CCCN(CCC)C1CCc2cccc(O)c2C1 (centres unmarked) [Compound 8-OH-DPAT]
- ED50 [2]: 1.9 µg/kg

Compound: COc1ccccc1N1CCN(CC(C(=O)NC(C)(C)C)c2ccccc2)CC1 (racemic) [racemate, N-tert-butyl-3-[4-(2-methoxyphenyl)piperazinyl]-2-phenylpropanamide]
- pIC50 (5-HT1A receptor): 7.47
- inhibition at 1 µM (5-HT2A): 37%
- inhibition at 1 µM (D1): 20%
- inhibition at 1 µM (α2): 10%
- inhibition at 1 µM (D2): 14%
- inhibition at 1 µM (5-HT1B): 27%

Compound: COc1ccccc1N1CCN(CC[C@@H](C(=O)N2CCCCCC2)c2ccccc2)CC1 [(c)]
- pIC50 (5-HT1A receptor): 9.52
- effect of pretreatment on 8-OH-DPAT-induced decrease in 5-HT release [3]: completely blocked the 8-OH-DPAT-induced decrease in 5-HT release
- effect on 5-HT release / extracellular levels of 5-HT in the hippocampus [3]: no significant effect on extracellular levels of 5-HT in the hippocampus
- pIC50 (α1): 7.28
- pIC50 (5-HT2A; procedure (B)): 6.97
- inhibition at 1 µM (D1): < 50%
- inhibition at 1 µM (α2): 53%
- pIC50 (D2; procedure (B)): 6.56
- pIC50 (5-HT1D; procedure (B)): 5.65
- % inhibition of binding at 5-HT2C (5-HT1C) (5-HT2C): < 50%
- % inhibition of binding at β (β): < 50%
- inhibition at 1 µM (5-HT1B): < 50%

Compound: CN(C)CCCN1c2ccccc2CCc2ccccc21 [imipramine]
- displacement of hippocampal [^3 H]WAY-100635 binding (5-HT1A binding site [1]; [5]): ineffective

Compound: COC(=O)c1cc2c(N3CCN(CCCCN4C(=O)c5ccccc5S4(=O)=O)CC3)cccc2[nH]1 [SDZ-216525]
- pIC50 (5-HT1A binding site [4]): 8.30

Compound: COc1ccccc1N1CCN(CCCCN2C(=O)c3ccccc3C2=O)CC1 [NAN 190]
- pIC50 (5-HT1A binding site [4]): 7.00 to 8.00

Compound: CNC[C@H](O)c1cccc(O)c1 [L-phenylephrine]
- displacement of hippocampal [^3 H]WAY-100635 binding (5-HT1A binding site [1]; [6]): ineffective

Compound: COCCCC/C(=N\OCCN)c1ccc(C(F)(F)F)cc1 [fluvoxarnine]
- activity against [^3 H]WAY-100635 binding (5-HT1A binding site [1]; micromolar concentrations): inactive

Compound: NCCc1c[nH]c2ccc(C(N)=O)cc12 [Compound 5-CT]
- pIC50 (5-HT1A binding site [4]): 7.00 to 8.00

Compound: NCCc1ccc(O)c(O)c1 [dopamine]
- displacement of hippocampal [^3 H]WAY-100635 binding (5-HT1A binding site [1]; [6]): ineffective

Compound: NC[C@H](O)c1ccc(O)c(O)c1 [noradrenaline]
- displacement of hippocampal [^3 H]WAY-100635 binding (5-HT1A binding site [1]; [6]): ineffective

Compound: CC(C)NCC(O)c1ccc(O)c(O)c1 (centres unmarked) [isoprenaline]
- displacement of hippocampal [^3 H]WAY-100635 binding (5-HT1A binding site [1]; [6]): ineffective

Compound: COc1ccccc1N1CCN(CCN(C(=O)C2CCCCC2)c2ccccn2)CC1 [Compound (a), N-(2-(1-(4-(2-methoxyphenyl)piperazinyl))ethyl)-N-(2-pyridinyl)cyclohexanecarboxamide]
- inhibition at 1 µM (5-HT2A): < 50%
- inhibition at 1 µM (D1): < 50%
- inhibition at 1 µM (α2): < 50%
- inhibition at 1 µM (D2): < 50%
- % inhibition of binding at 5-HT1D (5-HT1D; 10^-6 M): < 50%
- % inhibition of binding at 5-HT2C (5-HT1C) (5-HT2C): < 50%
- % inhibition of binding at β (β): < 50%
- inhibition at 1 µM (5-HT1B): < 50%

Compound: CSc1ccc2c(c1)C(N1CCN(C)CC1)Cc1ccccc1S2 (centres unmarked) [methiothepin]
- pIC50 (5-HT1A binding site [4]): 7.00 to 8.00

Source: patent US6056942A, “5-HT1A ligands” (John Wyeth & Brother, Ltd., priority 1993, dated 2000)
